Legend:
[1] = target: Beta-1 adrenergic receptor (Homo sapiens, UniProt P08588)
Description: Displacement of [3H]CGP12177 from human beta-1 adrenoceptor

[2] = target: Beta-2 adrenergic receptor (Homo sapiens, UniProt P07550)
Description: Displacement of [3H]CGP12177 from human beta2 adrenoceptor

[3] = Agonist activity at beta 1 adrenoceptor in electrically-stimulated guinea pig left atrium at 1 uM; type: functional, Cavia porcellus, Cardiac atrium

Sequence of Beta-2 adrenergic receptor (P07550 whole entry): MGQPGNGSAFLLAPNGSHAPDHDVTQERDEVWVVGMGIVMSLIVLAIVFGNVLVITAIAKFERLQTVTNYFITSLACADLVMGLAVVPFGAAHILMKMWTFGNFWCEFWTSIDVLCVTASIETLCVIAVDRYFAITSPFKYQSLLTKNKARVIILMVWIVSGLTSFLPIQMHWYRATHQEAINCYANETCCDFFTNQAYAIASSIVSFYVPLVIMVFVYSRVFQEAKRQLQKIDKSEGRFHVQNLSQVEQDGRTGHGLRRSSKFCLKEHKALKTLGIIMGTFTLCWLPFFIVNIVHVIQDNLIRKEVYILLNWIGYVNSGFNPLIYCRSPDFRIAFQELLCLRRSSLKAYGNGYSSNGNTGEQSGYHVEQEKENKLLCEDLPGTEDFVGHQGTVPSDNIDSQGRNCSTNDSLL
Sequence of Beta-1 adrenergic receptor (P08588 whole entry): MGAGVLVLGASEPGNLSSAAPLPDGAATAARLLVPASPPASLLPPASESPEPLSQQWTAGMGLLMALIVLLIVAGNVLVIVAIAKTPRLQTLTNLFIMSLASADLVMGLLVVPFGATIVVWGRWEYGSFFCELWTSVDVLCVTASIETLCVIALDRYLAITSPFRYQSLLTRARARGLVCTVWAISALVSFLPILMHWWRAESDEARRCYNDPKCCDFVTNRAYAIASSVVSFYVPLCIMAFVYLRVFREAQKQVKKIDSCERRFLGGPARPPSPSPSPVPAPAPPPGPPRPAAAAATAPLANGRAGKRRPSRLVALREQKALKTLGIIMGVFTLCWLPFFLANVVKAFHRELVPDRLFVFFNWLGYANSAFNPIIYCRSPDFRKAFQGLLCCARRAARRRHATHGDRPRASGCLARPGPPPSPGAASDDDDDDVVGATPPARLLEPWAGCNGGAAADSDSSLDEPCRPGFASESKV

Structure (SMILES) | Ki [1] [nM] | Ki [2] [nM] | Activity [3] [%]
O=c1[nH]c2c(O)ccc([C@@H](O)CN[C@H]3CCCC[C@@H]3OCc3ccccc3)c2s1 | 1060 | 362 | 
O=c1[nH]c2c(O)ccc([C@@H](O)CNC3CCN(CCN4CCCCCC4)CC3)c2s1 | 187 | 6.3 | 
C[C@H](NC[C@H](O)c1ccc(O)c2[nH]c(=O)sc12)C1CCCCC1 | 39.3 | 25.1 | 
O=c1[nH]c2c(O)ccc([C@@H](O)CNCC34CC5CC(CC(C5)C3)C4)c2s1 | 35.4 | 26.5 | 
CC(C)(Cc1ccccc1)NC[C@H](O)c1ccc(O)c2[nH]c(=O)sc12 | 1.8 | 0.4 | 
O=c1[nH]c2c(O)ccc([C@@H](O)CNCCOc3ccccc3)c2s1 | 17.8 | 4.4 | 
C[C@@H](NC[C@H](O)c1ccc(O)c2[nH]c(=O)sc12)C1CCCCC1 | 1.5 | 1 | 69
CC(C)(C)CC(C)(C)NC[C@H](O)c1ccc(O)c2[nH]c(=O)sc12 | 9.2 | 1.9 | 
O=c1[nH]c2c(O)ccc([C@@H](O)CNCCSc3ccc(Cl)cc3)c2s1 | 1.7 | 3 | 
O=c1[nH]c2c(O)ccc([C@@H](O)CNCCc3ccccc3)c2s1 | 3.8 | 1.8 | 
C[C@@H](NC[C@H](O)c1ccc(O)c2[nH]c(=O)sc12)c1ccc2ccccc2c1 | 1.4 | 2.7 | 
CC1(C)[C@@H]2CC[C@@]1(C)[C@@H](NC[C@H](O)c1ccc(O)c3[nH]c(=O)sc13)C2 | 450 | 3.8 | 
O=c1[nH]c2c(O)ccc([C@@H](O)CNC3CCCCC3C3CCCCC3)c2s1 (some centres not stated) | 662 | 151 | 
CCC(CC)CNC[C@H](O)c1ccc(O)c2[nH]c(=O)sc12 | 169 | 24.7 | 
O=C(NC1CCCCC1)[C@H](Cc1ccccc1)NC[C@H](O)c1ccc(O)c2[nH]c(=O)sc12 | > 1000 | > 1000 | 
CC1(C)[C@@H]2CC[C@]1(C)[C@@H](NC[C@H](O)c1ccc(O)c3[nH]c(=O)sc13)C2 | 1510 | 40.4 | 
O=c1[nH]c2c(O)ccc([C@@H](O)CNCCCCc3ccccc3)c2s1 | 15 | 1.8 | 
O=c1[nH]c2c(O)ccc([C@@H](O)CN[C@H]3CCCc4ccccc43)c2s1 | 58.2 | 30.2 | 
Cc1onc(-c2ccccc2)c1CNC[C@H](O)c1ccc(O)c2[nH]c(=O)sc12 | 902 | 19.8 | 19
C[C@H](NC[C@H](O)c1ccc(O)c2[nH]c(=O)sc12)c1ccc2ccccc2c1 | 33.7 | 48.9 | 
O=c1[nH]c2c(O)ccc([C@@H](O)CNCCCc3ccccc3)c2s1 | 2 | 1.2 | 
CNCC(O)c1ccc(O)c2nc(O)sc12 (configuration not stated) | 60.6 | 5 | 
O=c1[nH]c2c(O)ccc([C@@H](O)CN[C@@H]3CCCc4ccccc43)c2s1 | 112 | 9.4 | 
CCCCN(CCCC)CCNC[C@H](O)c1ccc(O)c2[nH]c(=O)sc12 | 31.3 | 18.3 | 
O=c1[nH]c2c(O)ccc([C@@H](O)CN[C@@H]3CCCC[C@H]3OCc3ccccc3)c2s1 | 40.4 | 7.2 | 13
O=c1[nH]c2c(O)ccc([C@@H](O)CNC3CCCCCC3)c2s1 | 78.8 | 11.8 | 
CN(CCCNC[C@H](O)c1ccc(O)c2[nH]c(=O)sc12)c1ccccc1 | 8.4 | 0.3 | 

Reference: ChEMBL document CHEMBL1221245, “A physical properties based approach for the exploration of a 4-hydroxybenzothiazolone series of beta2-adrenoceptor agonists as inhaled long-acting bronchodilators” (Bioorg Med Chem Lett, 2010)
